According to the supplement of paper PMC10307832:

Legend:
Experiment in all cases: relative viability (nuclei count vs DMSO), 5 days (fraction); higher = more cells survive
LCLC-97TM1 = tested on: LCLC-97TM1
Procedure, shortened: (§1)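 Relative viability is defined as nuclei in treated wells over nuclei in vehicle wells. Duplicate plates were run and medians reported. Lung cancer cell lines in 1536-well plates were dosed by pin tool one day after seeding, with one drug or with a fixed anchor-drug dose plus five library-drug doses (not always all listed) in √10 steps, and nuclei were counted after 5 days.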

HCC-366 = tested on: HCC-366
Procedure, shortened: as §1

EBC-1 = tested on: EBC-1
Procedure, shortened: as §1

NCI-H2009 = tested on: NCI-H2009
Procedure, shortened: as §1

NCI-H1650 = tested on: NCI-H1650
Procedure, shortened: as §1

NCI-H650 = tested on: NCI-H650
Procedure, shortened: as §1

RERF-LC-KJ = tested on: RERF-LC-KJ
Procedure, shortened: as §1

ChaGo-K-1 = tested on: ChaGo-K-1
Procedure, shortened: as §1

HCC-44 = tested on: HCC-44
Procedure, shortened: as §1

COR-L23 = tested on: COR-L23
Procedure, shortened: as §1

NCI-H460 = tested on: NCI-H460
Procedure, shortened: as §1

SW 1573 = tested on: SW 1573
Procedure, shortened: as §1

NCI-H2126 = tested on: NCI-H2126
Procedure, shortened: as §1

LOU-NH91 = tested on: LOU-NH91
Procedure, shortened: as §1

NCI-H1993 = tested on: NCI-H1993
Procedure, shortened: as §1

HARA = tested on: HARA
Procedure, shortened: as §1

201T = tested on: 201T
Procedure, shortened: as §1

NCI-H441 = tested on: NCI-H441
Procedure, shortened: as §1

HCC-78 = tested on: HCC-78
Procedure, shortened: as §1

A-427 = tested on: A-427
Procedure, shortened: as §1

LCLC-103H = tested on: LCLC-103H
Procedure, shortened: as §1

NCI-H1734 = tested on: NCI-H1734
Procedure, shortened: as §1

NCI-H2023 = tested on: NCI-H2023
Procedure, shortened: as §1

HCC-15 = tested on: HCC-15
Procedure, shortened: as §1

CCCCCCCCCCCC1=C(O)C(=O)C=C(O)C1=O [Embelin] + CC(C)C[C@H](NC(=O)[C@H](Cc1ccccc1)NC(=O)c1cnccn1)B(O)O [Bortezomib] (partner 0.002 µM)
relative viability (LCLC-97TM1; first compound 0.08 µM): 0.812 | relative viability (LCLC-97TM1; first compound 0.8 µM): 0.774 | relative viability (LCLC-97TM1; first compound 2.53 µM): 0.29 | relative viability (LCLC-97TM1; first compound 8 µM): 0.907 | relative viability (HCC-366; first compound 0.08 µM): 1.05 | relative viability (HCC-366; first compound 0.8 µM): 1.05 | relative viability (HCC-366; first compound 2.53 µM): 1.43 | relative viability (HCC-366; first compound 8 µM): 1.1 | relative viability (EBC-1; first compound 0.08 µM): 0.485 | relative viability (EBC-1; first compound 0.8 µM): 0.678 | relative viability (EBC-1; first compound 2.53 µM): 0.565 | relative viability (EBC-1; first compound 8 µM): 0.545 | relative viability (NCI-H2009; first compound 0.08 µM): 1.07 | relative viability (NCI-H2009; first compound 0.8 µM): 1.18 | relative viability (NCI-H2009; first compound 2.53 µM): 0.916 | relative viability (NCI-H2009; first compound 8 µM): 0.9 | relative viability (NCI-H1650; first compound 0.08 µM): 0.191 | relative viability (NCI-H1650; first compound 0.8 µM): 0.189 | relative viability (NCI-H1650; first compound 2.53 µM): 0.203 | relative viability (NCI-H1650; first compound 8 µM): 0.213 | relative viability (NCI-H650; first compound 0.08 µM): 0.64 | relative viability (NCI-H650; first compound 0.8 µM): 1 | relative viability (NCI-H650; first compound 2.53 µM): 0.668 | relative viability (NCI-H650; first compound 8 µM): 0.453 | relative viability (RERF-LC-KJ; first compound 0.08 µM): 0.984 | relative viability (RERF-LC-KJ; first compound 0.8 µM): 1.31 | relative viability (RERF-LC-KJ; first compound 2.53 µM): 1.3 | relative viability (RERF-LC-KJ; first compound 8 µM): 1.19 | relative viability (ChaGo-K-1; first compound 0.08 µM): 0.988 | relative viability (ChaGo-K-1; first compound 0.8 µM): 1.37 | relative viability (ChaGo-K-1; first compound 2.53 µM): 0.946 | relative viability (ChaGo-K-1; first compound 8 µM): 0.793 | relative viability (HCC-44; first compound 0.08 µM): 0.838 | relative viability (HCC-44; first compound 0.8 µM): 0.865 | relative viability (HCC-44; first compound 2.53 µM): 0.864 | relative viability (HCC-44; first compound 8 µM): 0.897 | relative viability (COR-L23; first compound 0.08 µM): 1 | relative viability (COR-L23; first compound 0.8 µM): 1.1 | relative viability (COR-L23; first compound 2.53 µM): 1.21 | relative viability (COR-L23; first compound 8 µM): 1.21 | relative viability (NCI-H460; first compound 0.08 µM): 0.961 | relative viability (NCI-H460; first compound 0.8 µM): 1.27 | relative viability (NCI-H460; first compound 2.53 µM): 1.38 | relative viability (NCI-H460; first compound 8 µM): 1.19 | relative viability (SW 1573; first compound 0.08 µM): 1.26 | relative viability (SW 1573; first compound 0.8 µM): 1.29 | relative viability (SW 1573; first compound 2.53 µM): 1.2 | relative viability (SW 1573; first compound 8 µM): 1.27 | relative viability (NCI-H2126; first compound 0.08 µM): 1.14 | relative viability (NCI-H2126; first compound 0.8 µM): 1.11 | relative viability (NCI-H2126; first compound 2.53 µM): 1.08 | relative viability (NCI-H2126; first compound 8 µM): 1.19 | relative viability (LOU-NH91; first compound 0.08 µM): 0.554 | relative viability (LOU-NH91; first compound 0.8 µM): 0.578 | relative viability (LOU-NH91; first compound 2.53 µM): 0.504 | relative viability (LOU-NH91; first compound 8 µM): 0.509 | relative viability (NCI-H1993; first compound 0.08 µM): 1.16 | relative viability (NCI-H1993; first compound 0.8 µM): 1.14 | relative viability (NCI-H1993; first compound 2.53 µM): 1.22 | relative viability (NCI-H1993; first compound 8 µM): 1.08 | relative viability (HARA; first compound 0.08 µM): 1.05 | relative viability (HARA; first compound 0.8 µM): 1.25 | relative viability (HARA; first compound 2.53 µM): 1.13 | relative viability (HARA; first compound 8 µM): 1.26 | relative viability (201T; first compound 0.08 µM): 1.06 | relative viability (201T; first compound 0.8 µM): 1.17 | relative viability (201T; first compound 2.53 µM): 1.09 | relative viability (201T; first compound 8 µM): 1.09 | relative viability (NCI-H441; first compound 0.08 µM): 0.448 | relative viability (NCI-H441; first compound 2.53 µM): 0.251 | relative viability (NCI-H441; first compound 8 µM): 0.475 | relative viability (HCC-78; first compound 0.08 µM): 0.605 | relative viability (HCC-78; first compound 0.8 µM): 0.532 | relative viability (HCC-78; first compound 2.53 µM): 0.555 | relative viability (HCC-78; first compound 8 µM): 0.438 | relative viability (A-427; first compound 0.08 µM): 1.05 | relative viability (A-427; first compound 0.8 µM): 1.11 | relative viability (A-427; first compound 2.53 µM): 0.978 | relative viability (A-427; first compound 8 µM): 0.904 | relative viability (LCLC-103H; first compound 0.08 µM): 1 | relative viability (LCLC-103H; first compound 0.8 µM): 1.14 | relative viability (LCLC-103H; first compound 2.53 µM): 1.07 | relative viability (LCLC-103H; first compound 8 µM): 0.885 | relative viability (NCI-H1734; first compound 0.08 µM): 0.882 | relative viability (NCI-H1734; first compound 0.8 µM): 1.35 | relative viability (NCI-H1734; first compound 2.53 µM): 1.14 | relative viability (NCI-H1734; first compound 8 µM): 0.944 | relative viability (NCI-H2023; first compound 0.08 µM): 0.915 | relative viability (NCI-H2023; first compound 0.8 µM): 1.12 | relative viability (NCI-H2023; first compound 2.53 µM): 1.07 | relative viability (NCI-H2023; first compound 8 µM): 0.578 | relative viability (HCC-15; first compound 0.08 µM): 1.07 | relative viability (HCC-15; first compound 0.8 µM): 1.02 | relative viability (HCC-15; first compound 2.53 µM): 1.18 | relative viability (HCC-15; first compound 8 µM): 1.11
